Reference: patent publication US20260124170A1, “PHARMACEUTICAL COMPOSITION COMPRISING METABOLITE OF ENAVOGLIFLOZIN, AND USE THEREOF” (DAEWOONG PHARMACEUTICAL CO., LTD., priority 2022, published 2026)
Several values for one entry are separate records, joined by “and”; a condition that tells them apart may be missing. Identical values can stand only once. Marks after values point to notes of the source that are not given here.

How the values were obtained:
[1] = target: T1, SGLT2 (Homo sapiens, UniProt P31639); assay: Whole-cell patch clamp glucose current, binding and dissociation, CHO-SGLT2; type: cell-based; conditions: for Dissociation degree T1/2, off (s), SGLT2: washout
T1 construct: expressed in transfected cells
T1 sequence (P31639 1-672): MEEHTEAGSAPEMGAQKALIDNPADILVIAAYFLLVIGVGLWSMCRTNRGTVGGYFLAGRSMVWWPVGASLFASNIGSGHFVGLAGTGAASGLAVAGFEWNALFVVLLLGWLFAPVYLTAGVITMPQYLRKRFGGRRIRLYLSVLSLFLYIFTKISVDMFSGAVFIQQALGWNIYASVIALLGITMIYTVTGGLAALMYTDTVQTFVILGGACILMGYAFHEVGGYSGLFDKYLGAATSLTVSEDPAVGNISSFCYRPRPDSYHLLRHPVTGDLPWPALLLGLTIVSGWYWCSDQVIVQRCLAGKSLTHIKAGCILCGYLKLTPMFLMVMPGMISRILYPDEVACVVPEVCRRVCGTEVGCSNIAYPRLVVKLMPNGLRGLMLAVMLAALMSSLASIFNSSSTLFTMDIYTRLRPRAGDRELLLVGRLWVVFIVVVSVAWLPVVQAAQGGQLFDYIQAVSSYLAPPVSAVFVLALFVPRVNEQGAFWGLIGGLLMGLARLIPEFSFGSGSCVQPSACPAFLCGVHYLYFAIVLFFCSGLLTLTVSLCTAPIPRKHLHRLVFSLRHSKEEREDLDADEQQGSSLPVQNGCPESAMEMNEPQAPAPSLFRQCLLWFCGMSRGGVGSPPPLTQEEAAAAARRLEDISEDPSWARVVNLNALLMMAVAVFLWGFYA
Description: (§1) When SGLT1- and SGLT2-overexpressing cell lines (CHO-SGLT1, CHO-SGLT2 stable cells) were cultured to reach 60% confluency, the cells were treated with 0.05% trypsin to detach the cells from the bottom of the plate, suspended in 200 μL of culture medium, and used at room temperature.
(§2) Glucose reabsorption is induced by the Na^+ electrochemical potential gradient in the kidneys via SGLT2, and glucose diffuses across the cell membrane into the blood via glucose transporter 2 (GLUT-2), which enables facilitated glucose transport. While one Na^+ ion is absorbed per glucose molecule through SGLT2, two Nations are absorbed per glucose molecule through SGLT1. Therefore, by varying the composition of the buffer, only the glucose current was recorded, excluding the Na^+ current.
(§3) The experiment was conducted as described below.
(§4) 1) Using a Narishige puller, a glass micropipette was made in two stages of 62.7° C. and 57° C., filled with an internal solution (145 mM CsCl, 5 mM NaCl, 10 mM HEPES, 11 mM ethylene glycol-bis(2-aminoethylether)-N,N,N′,N′-tetraacetic acid (EGTA), pH 7.2), and then inserted into the Ag/AgCl2 electrode of the patch clamp head-stage.
(§5) 2) SGLT1 or SGLT2 cells were seeded on a chamber which was coated with poly-L-lysine in advance, and then an external solution (150 mM NaCl, 10 mM HEPES, 1 mM CaCl2), 1 mM MgCl2, pH 7.4) was flowed to ensure that the cells were sufficiently submerged. A temperature control device was used to maintain the temperature of the chamber at 36.5±0.5° C.
(§6) 3) Using a micromanipulator, the glass micropipette was attached to the cell membrane to create a giga-ohm seal, which was then ruptured to detach the cell membrane (whole-cell mode, 3 to 5 MΩ).
(§7) 4) The cells were fixed at −60 mV (holding potential), and the current [I^total current (Na^+/Glucose current (pA))] was measured in a gap-free data acquisition mode.
(§8) 5) The external solution was continuously flowed into the chamber containing the cells, and the current (I^total) was recorded for about 30 seconds to 1 minute (stabilization), and then the external solution with added glucose (Na^+/Glucose external) (150 mM NaCl, 10 mM HEPES, 1 mM CaCl2), 1 mM MgCl2, 100 mM glucose, pH 7.4) was flowed to record the glucose current (I^glucose). Then, the cells were exposed to the external solution with added glucose containing one concentration of the compound for two minutes, and the glucose current suppressed by the compound was recorded.
(§9) 7) After confirming the recovery of the current, the solution was replaced with a sodium-free external solution (Na^+-free external) (150 mM Choline-Cl, 1 mM CaCl2), 1 mM MgCl2, pH 7.4) and the Na^+ current was recorded. After the current was stabilized, the solution was replaced with the external solution to record the current in the resting state when the cells were not stimulated, thereby securing the reliability of the experimental system.
(§10) For statistical analysis of data, pCLAMP10.4 (Molecular Devices, LLC, San Jose, CA, USA) or Origin6.0 (OriginLab, Northampton, MA, USA) was used.
(§11) The test results were expressed as the mean±SD of the mean. Statistical significance was verified using the nonparametric Kruskal-Wallis test using Statistical Package for the Social Sciences (SPSS) for Windows (version 26.0, IBM Corp., Armonk, NY, USA). The significance level was set at p<0.05.

[2] = target: T2, SGLT1 (Homo sapiens, UniProt P13866); assay: Whole-cell patch clamp glucose current, binding and dissociation, CHO-SGLT1; type: cell-based; conditions: for Dissociation degree T1/2, off (s), SGLT1: washout
T2 construct: expressed in transfected cells
T2 sequence (P13866 1-664): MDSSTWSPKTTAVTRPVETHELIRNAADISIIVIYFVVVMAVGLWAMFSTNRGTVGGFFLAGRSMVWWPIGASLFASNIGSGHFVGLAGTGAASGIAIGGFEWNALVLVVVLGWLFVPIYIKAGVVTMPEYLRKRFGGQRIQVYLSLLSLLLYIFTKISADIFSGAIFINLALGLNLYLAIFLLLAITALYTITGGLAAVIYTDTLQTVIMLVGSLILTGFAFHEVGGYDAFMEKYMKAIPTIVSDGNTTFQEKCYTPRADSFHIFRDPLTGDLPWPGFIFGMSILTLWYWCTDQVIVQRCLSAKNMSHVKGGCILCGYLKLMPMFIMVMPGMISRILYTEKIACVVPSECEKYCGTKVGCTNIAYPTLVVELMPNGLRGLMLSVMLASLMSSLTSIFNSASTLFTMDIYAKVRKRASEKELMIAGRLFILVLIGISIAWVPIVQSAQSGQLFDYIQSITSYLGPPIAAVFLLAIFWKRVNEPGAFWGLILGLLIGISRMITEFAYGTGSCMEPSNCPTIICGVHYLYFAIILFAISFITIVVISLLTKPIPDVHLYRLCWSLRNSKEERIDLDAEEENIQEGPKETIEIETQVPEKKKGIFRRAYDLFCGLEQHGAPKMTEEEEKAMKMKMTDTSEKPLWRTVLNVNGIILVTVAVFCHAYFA
Description: as §1, §2, §3, §4, §5, §6, §7, §8, §9, §10, §11

[3] = test system: human hepatocytes; conditions: cited from earlier work

Row | Compound | Dissociation from SGLT2, times slower than dapagliflozin ([1]; ratio of T1/2,off) | Binding affinity T1/2, on (s), SGLT2 ([1]; treatment concentration 100 μM) | Dissociation degree T1/2, off (s), SGLT2 ([1]; treatment concentration 100 μM) | Dissociation degree T1/2, off (s), SGLT2 ([1]; treatment concentration 100 μM, listed as enavogliflozin) | Binding affinity T1/2, on (s), SGLT1 ([2]; treatment concentration 5 μM) | Dissociation degree T1/2, off (s), SGLT1 ([2]; treatment concentration 5 μM) | Dissociation degree T1/2, off (s), SGLT1 ([2]; treatment concentration 5 μM, listed as enavogliflozin) | Number of metabolites produced in human hepatocytes ([3]; M1, M2, M3, U1, U2) | Dissociation rate from SGLT2, times slower than enavogliflozin ([1]; ratio of T1/2,off) | Binding affinity T1/2, on (s), SGLT2 ([1]; treatment concentration 200 μM) | Dissociation degree T1/2, off (s), SGLT2 ([1]; treatment concentration 200 μM) | Dissociation from SGLT1, times slower than dapagliflozin ([2]; ratio of T1/2,off) | Dissociation from SGLT1, times slower than enavogliflozin ([2]; ratio of T1/2,off) | Enzymes catalyzing formation of the metabolite [3] | Binding affinity T1/2, on (s), SGLT1 ([2]; treatment concentration 20 μM) | Dissociation degree T1/2, off (s), SGLT1 ([2]; treatment concentration 20 μM)
1 | OC[C@H]1O[C@@H](c2cc(Cc3ccc(C4CC4)cc3)c(Cl)c3c2CCO3)[C@H](O)[C@@H](O)[C@@H]1O [Enavogliflozin, (2S,3R,4R,5S,6R)-2-(7-chloro-6 (4-cyclopropylbenzyl)-2,3-dihydrobenzofuran-4-yl)-6-(hydroxymethyl)tetrahydro-2H-pyran-3,4,5-triol] | about 2.8 times | 29.5 ± 5.5 s | 745.5^+, # s | 745.5 s | 11.5 ± 4.2 s | 34.9 ± 9.6 s | 34.9 s | five | – | – | – | – | – | – | – | –
2 | OC[C@H]1O[C@@H](c2cc(Cc3ccc(C4CC4)cc3)c(Cl)c3c2CC(O)O3)[C@H](O)[C@@H](O)[C@@H]1O (stereo partly drawn) [M1, (2S,3R,4R,5S,6R)-2-(7-chloro-6-(4-cyclopropylbenzyl)-2-hydroxy-2,3-dihydrobenzofuran-4-yl)-6-(hydroxymethyl)tetrahydro-2H-pyran-3,4,5-triol] | – | – | – | – | 18.8 ± 4.1 s | 59.8 s and 59.8 ± 11.5*^, + s | – | – | 2 times | 52.5 ± 3.8*^, + s | 369.9 s and 369.9 ± 56.5 ^ s | 1.96 times | 1.7 times | CYP3A4 and CYP2C19 | – | –
3 | OC[C@H]1O[C@@H](c2cc(Cc3ccc(C4(O)CC4)cc3)c(Cl)c3c2CCO3)[C@H](O)[C@@H](O)[C@@H]1O [M2, (2S,3R,4R,5S,6R)-2-(7-chloro-6-(4-(1-hydroxycyclopropyl)benzyl)-2,3-dihydrobenzofuran-4-yl)-6-(hydroxymethyl)tetrahydro-2H-pyran-3,4,5-triol] | – | – | – | – | – | – | – | – | 1.38 times | 51.8 ± 10.5*^, + s | 540.4 s and 540.4 ± 217.0^+, # s | – | – | CYP3A4 and CYP2C19 | 15.7 ± 6.5 s | 23.5 s and 23.5 ± 10.4 s
